# According to article PMC6394990, “Detailed characterization of the solution kinetics and thermodynamics of biotin, biocytin and HABA binding to avidin and streptavidin” (PLoS ONE, 2019):
# Where “and” joins values, the source holds several entries; their conditions need not be identical. Equal entries are not always repeated. Where two headings read alike, the source gives them in different places.
# Molecular target: T1, streptavidin (SAV) (Streptomyces avidinii, UniProt P22629)
# T1 construct: purchased Sigma Aldrich (St. Louis, MO)
# Experiment: Stopped-flow association kinetics of dye-labeled biotin probes binding to streptavidin (F(t), rF(t); Arrhenius plots/global fitting)
# Parameters: kcal/mol (from Arrhenius slope) / Eon for BFl: unit not given here
# Conditions: for ΔG^ǂ / ΔS^ǂ: forward; for kcal/mol (from Arrhenius slope) / slope (Arrhenius linear fit): ph8; for halftime of association, F¯(t) / half-time of association, rF¯(t): probe 20 nM
# Procedure: These reactions were carried out in a buffered solution of 10 mM Tris-HCl, 100 mM KCl, 2.5 mM MgCl2 and 1 mM CaCl2 at pH 8 and only AV-BcO reactions included pH 9 and 10. […] The deglycosylation of AV (for comparative association reactions) was carried out using the provided standard protocol with endoglycosidase H [47], both with and without incubation of a denaturant solution (2% SDS and 1M 2-mercaptoethanol).
# The reactions were collected with the SF instrument, described previously. […] The AC(t) and DC(t) data were baseline corrected before obtaining the signal ratio (Eq 4) as a function of time (ρt).
# The constant AGain is the instrumental amplitude gain and was evaluated by solving ρ(t) using the known steady state anisotropy (rss) of the complexes which is equivalent to the r(t) at t = ∞; and H, obtained from the equivalent grating factor (G) for the filters and photo multiplier tubes in the SF. For the probes used in here G was 0.82 and H = (1-G)/(1+G) = 0.099. Knowing Again and H, the AC(t) and DC(t) signals can be solved for r(t) and F(t) (Eqs 4 and 5) and the normalized fluorescence, F¯(t) , and corrected fluorescence anisotropy, rF¯(t), were obtained when F¯(0) and rF¯(0) were scaled to 1 at t = 0.
# The F¯(t) (Eq 6) is equivalent to (I||) + 2 (I⊥) and proportional to quantum yield (QYi), molar absorptivity (εi) and to the formation or disappearance of the emitting species Xi(t); and rF¯(t) including the steady state anisotropies (rss) of each fluorescent species (Eq 7).
# The possible reaction models were discriminated by the squared residuals of the observed and calculated association traces of both fluorescence and anisotropy fluorescence signals, F¯(t) and rF¯(t) , respectively.
# [1] = SAV, average over the dye-labeled B7 probes, used for SAV-B7
# [2] = SAV, average over the dye-labeled B7 probes, used for SAV-B7, listed as B
# [3] = SAV, 10 (283.15 K), k (full value)
# [4] = SAV, 15 (288.15 K), k (full value)
# [5] = SAV, 25 (298.15 K), k (full value)
# [6] = pH 8, SAV, pH 8, 10°C, read-out: kon
# [7] = pH 8, SAV, pH 8, 15°C, read-out: kon
# [8] = pH 8, SAV, pH 8, 20°C, read-out: kon
# [9] = pH 8, SAV, pH 8, 25°C, read-out: kon
# T1 sequence (P22629 25-183): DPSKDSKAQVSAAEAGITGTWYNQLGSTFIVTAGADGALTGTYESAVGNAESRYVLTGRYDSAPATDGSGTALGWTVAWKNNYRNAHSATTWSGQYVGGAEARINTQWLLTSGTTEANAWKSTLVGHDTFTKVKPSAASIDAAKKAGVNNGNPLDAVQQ
compound,measurement,setting,value
"O=C(O)CCCC[C@@H]1SC[C@@H]2NC(=O)N[C@@H]21 [B7, d-biotin]",Eaon + (-∆H°),SAV-B,30.9 ± 2.5 kcal/mol
same,∆G°ǂ + (-∆G°),SAV-B,22.2 ± 1.0 kcal/mol
same,∆S°ǂ + (-∆S°),SAV-B,27.7 ± 2.0 cal/mol°K
same,ΔE = Ea^Forward-Ea^Backward,"SAV-B7, column 3 minus 4",-23.4 ± 4.0 kcal/mol
same,"ΔG° ^ǂ, Forward -ΔG° ^ǂ, Backward","SAV-B7, column 3 minus 4",-19.6 ± 2.5 kcal/mol
same,"ΔS° ^ǂ, Forward -ΔS° ^ǂ, Backward","SAV-B7, column 3 minus 4",-18.1 ± 4.5 cal/mol°K
same,fold slower than 10^9 M^-1s^-1 (diffusion limited),"SAV, 25°C",13-400 X
same,"ΔG^ǂ, Forward",[1],4.0 ± 0.6 kcal/mol and 4.0 kcal/mol
same,"ΔS^ǂ, Forward",[1],6.7 ± 1.6 cal/°K·mol and 6.7 cal/°K·mol
same,Ea^Forward,[2],6.0 ± 1.0 kcal/mol
same,"ΔS^ǂ, Forward",[2],6.7 ± 2.0 cal/°K·mol
"O=C(CCCC[C@@H]1SC[C@@H]2NC(=O)N[C@@H]21)NCCNC(=O)c1ccc(-c2c3ccc(=O)cc-3oc3cc(O)ccc23)c(C(=O)O)c1 [BFl, Biotin-4-fluorescein]","kon binding to SAV, fold faster than binding to AV",25°C,4 X
same,Eon for BFl,"Enthalpy block, SAV",6.0
same,kon by corrected fluorescence anisotropy rF(t),"SAV-BFl, 10 °C, 200 nM",3.75e+07 ± 1.2e+06 M⁻¹ s⁻¹
same,kon,"SAV-BFl, 10 °C, 200 nM, read-out: kon by corrected fluorescence anisotropy rF(t)",3.75e+07 M⁻¹ s⁻¹
same,kon,"SAV-BFl, 10 °C, 200 nM, read-out: kon by fluorescence change F(t)",3.73e+07 M⁻¹ s⁻¹
same,kon,"SAV-BFl, 10 °C, read-out: kon, Average",3.74e+07 M⁻¹ s⁻¹
same,kon by corrected fluorescence anisotropy rF(t),"SAV-BFl, 15 °C, 200 nM",4.5e+07 ± 1e+06 M⁻¹ s⁻¹
same,kon,"SAV-BFl, 15 °C, 200 nM, read-out: kon by corrected fluorescence anisotropy rF(t)",4.5e+07 M⁻¹ s⁻¹
same,kon,"SAV-BFl, 15 °C, 200 nM, read-out: kon by fluorescence change F(t)",4.48e+07 M⁻¹ s⁻¹
same,kon by corrected fluorescence anisotropy rF(t),"SAV-BFl, 15 °C, 400 nM",4.5e+07 ± 1.7e+06 M⁻¹ s⁻¹
same,kon,"SAV-BFl, 15 °C, 400 nM, read-out: kon by corrected fluorescence anisotropy rF(t)",4.5e+07 M⁻¹ s⁻¹
same,kon,"SAV-BFl, 15 °C, 400 nM, read-out: kon by fluorescence change F(t)",4.59e+07 M⁻¹ s⁻¹
same,kon by corrected fluorescence anisotropy rF(t),"SAV-BFl, 15 °C, 800 nM",4.38e+07 ± 1.9e+06 M⁻¹ s⁻¹
same,kon,"SAV-BFl, 15 °C, 800 nM, read-out: kon by corrected fluorescence anisotropy rF(t)",4.38e+07 M⁻¹ s⁻¹
same,kon,"SAV-BFl, 15 °C, 800 nM, read-out: kon by fluorescence change F(t)",4.2e+07 M⁻¹ s⁻¹
same,kon,"SAV-BFl, 15 °C, read-out: kon, Average",4.44e+07 M⁻¹ s⁻¹
same,kon by corrected fluorescence anisotropy rF(t),"SAV-BFl, 20 °C, 200 nM",6.25e+07 ± 1.6e+06 M⁻¹ s⁻¹
same,kon,"SAV-BFl, 20 °C, 200 nM, read-out: kon by corrected fluorescence anisotropy rF(t)",6.25e+07 M⁻¹ s⁻¹
same,kon,"SAV-BFl, 20 °C, 200 nM, read-out: kon by fluorescence change F(t)",6.23e+07 M⁻¹ s⁻¹
same,kon,"SAV-BFl, 20 °C, read-out: kon, Average",6.24e+07 M⁻¹ s⁻¹
same,kon by corrected fluorescence anisotropy rF(t),"SAV-BFl, 25 °C, 200 nM",7.4e+07 ± 2e+06 M⁻¹ s⁻¹
same,kon,"SAV-BFl, 25 °C, 200 nM, read-out: kon by corrected fluorescence anisotropy rF(t)",7.4e+07 M⁻¹ s⁻¹
same,kon,"SAV-BFl, 25 °C, 200 nM, read-out: kon by fluorescence change F(t)",7.54e+07 M⁻¹ s⁻¹
same,kon,"SAV-BFl, 25 °C, read-out: kon, Average",7.47e+07 M⁻¹ s⁻¹
same,kon,"SAV, 4°C, calculated by an Arrhenius plot, read-out: kon",2.6e+07 M⁻¹ s⁻¹
same,ln(k),"SAV, 10 (283.15 K)",17.6
same,k(average),[3],4.55E+07
same,k(average),"SAV, 10 (283.15 K), k (scaled)",45.5
same,ln(k),"SAV, 15 (288.15 K)",17.8
same,k(average),[4],5.31E+07
same,k(average),"SAV, 15 (288.15 K), k (scaled)",53.1
same,ln(k),"SAV, 20 (293.15 K)",17.9
same,k(average),"SAV, 20 (293.15 K), k (scaled)",58.6
same,ln(k),"SAV, 25 (298.15 K)",18.1
same,k(average),[5],7.47E+07
same,k(average),"SAV, 25 (298.15 K), k (scaled)",74.7
same,kon,"SAV, 25°C and pH 8",7.5 ± 0.2 x 10^7 M^-1s^-1
same,Ea^Forward,"SAV, pH 8",5.3 ± 0.3 kcal/mol
same,ΔG^ǂ,"SAV, pH 8",3.3 ± 0.6 kcal/mol
same,ΔS^ǂ,"SAV, pH 8",6.6 ± 0.5 cal/°K·mol
same,kcal/mol (from Arrhenius slope),SAV,-8101
same,slope (Arrhenius linear fit),SAV,-4076.8
same,kon,"pH 8, SAV, 25°C and pH 8",~7.5e+07 M⁻¹ s⁻¹
same,kon,[6],4.54e+07 ± 1e+06 M⁻¹ s⁻¹
same,kon,[7],5.31e+07 ± 2e+06 M⁻¹ s⁻¹
same,kon,[8],5.86e+07 ± 1.6e+06 M⁻¹ s⁻¹
same,kon,[9],7.47e+07 ± 2e+06 M⁻¹ s⁻¹
same,"halftime of association, F¯(t)","SAV 200 nM, pH 8, 20°C",77.3 ms
same,"halftime of association, F¯(t)","SAV 400 nM, pH 8, 20°C",37.7 ms
same,"halftime of association, F¯(t)","SAV 800 nM, pH 8, 20°C",20.6 ms
"NC(CCCCNC(=O)CCCC[C@@H]1SC[C@@H]2NC(=O)N[C@@H]21)C(=O)NCCCCCNC(=O)c1ccc(-c2c3cc(F)c(=O)cc-3oc3cc(O)c(F)cc23)c(C(=O)O)c1 (some centres unmarked) [BcO, Oregon green 488 Biocytin]","kon binding to SAV, fold faster than binding to AV",25°C,3.2 X
same,rate at 4C (logarithmic value),"277.15 K, follows from the SAV line (m2, b2), protein not printed in the line",16.3
same,"halftime, F¯(t)","BcO 20 nM, SAV 200 nM, 10°C",200.6 ms
same,"halftime, rF¯(t)","BcO 20 nM, SAV 200 nM, 10°C",201.4 ms
same,"halftime, r¯(t)","BcO 20 nM, SAV 200 nM, 10°C",332.7 ms
same,b of the line y = m2x+b2,"SAV 2, reacting with BcO",27.125
same,"slope, m of the line y = m2x+b2","SAV 2, reacting with BcO, x = 1/Temp",-2995.5
same,ln(k),"SAV, 10 (283.15 K)",16.7
same,k(average),[3],1.73E+07
same,k(average),"SAV, 10 (283.15 K), k (scaled)",17.3
same,ln(k),"SAV, 15 (288.15 K)",16.8
same,k(average),[4],2.00E+07
same,k(average),"SAV, 15 (288.15 K), k (scaled)",20
same,ln(k),"SAV, 20 (293.15 K)",17.0
same,k(average),"SAV, 20 (293.15 K), k (full value)",2.40E+07
same,k(average),"SAV, 20 (293.15 K), k (scaled)",24
same,ln(k),"SAV, 25 (298.15 K)",17.2
same,k(average),[5],3.03E+07
same,k(average),"SAV, 25 (298.15 K), k (scaled)",30.3
same,Ea^Forward,"SAV, pH 8",6.2 ± 0.4 kcal/mol
same,ΔG^ǂ,"SAV, pH 8",3.9 ± 0.4 kcal/mol
same,ΔS^ǂ,"SAV, pH 8",7.8 ± 0.4 cal/°K·mol
same,kcal/mol (from Arrhenius slope),SAV,-9583
same,slope (Arrhenius linear fit),SAV,-4823.1
same,kon,[6],1.73e+07 ± 600000 M⁻¹ s⁻¹
same,kon,[7],2e+07 ± 1.2e+06 M⁻¹ s⁻¹
same,kon,[8],2.4e+07 ± 1.6e+06 M⁻¹ s⁻¹
same,kon,[9],3.03e+07 ± 2e+06 M⁻¹ s⁻¹
same,"half-time of association, rF¯(t)","SAV 200 nM, pH 8, 10°C",202 ms
same,"half-time of association, rF¯(t)","SAV 200 nM, pH 8, 15°C",111 ms
same,"half-time of association, rF¯(t)","SAV 200 nM, pH 8, 20°C",79 ms
same,kon,"read-out: kon, mono-exponential fit of F¯(t), BcO 20 nM, SAV 200 nM, 10°C",1.73e+07 M⁻¹ s⁻¹
same,kon,"read-out: kon, mono-exponential fit of rF¯(t), BcO 20 nM, SAV 200 nM, 10°C",1.72e+07 M⁻¹ s⁻¹
same,kon,"read-out: kon, mono-exponential fit of uncorrected anisotropy r¯(t), BcO 20 nM, SAV 200 nM, 10°C, ill-fitted signal",1.04e+07 M⁻¹ s⁻¹
